Results as given in patent publication US20040229816A1, “Anti-angiogenic and anti-tumoral properties of beta and gamma secretase inhibitors” (priority 2003, published 2004).
“Also recorded” adds a separate entry of the source. Read-outs that look alike come from different tables or passages of the source. Peptide text beside a SMILES is read from it. * marks the point of attachment. Cbz = O=C(OCc1ccccc1)*

Experiments:
[1] = tested on: human lung adenocarcinoma (A-549) xenografts; assay: human lung adenocarcinoma A-549 xenografts in nude mice; type: in vivo; conditions: Z-VLL-CHO 5 mg/Kg; for vascularization (vascular index) of A-549 tumors versus vehicle: DAPT 10 mg/Kg intraperitoneally, CD31/PECAM-1 immunostaining; for growth (tumor volume) of A-549 xenografts versus vehicle: intraperitoneally everyday for 12 days, DAPT 10 mg/Kg
Protocol: FIG. 9a: Anti-tumoral effect of the γ-secretase inhibitor DAPT and of the β-secretase inhibitor Z-VLL-CHO on human lung adenocarcinoma (A-549) xenografts growth rates. A-549 cells (8.5×10^6) were injected subcutaneously into both flanks of 8-10 weeks-old nude mice. Mice were injected intraperitoneally with either the vehicle, 5 mg/Kg of body weight of the β-secretase inhibitor Z-VLL-CHO or 10 mg/Kg of body weight of the γ-secretase inhibitor DAPT, starting when tumors had reached a mean tumor volume of approximately 200 mm^3 (day 21 post implantation). Injections were given everyday for 12 days. […] FIG. 9b: Representative pictures of sections of lung adenocarcinoma tumors immunostained with CD31 antibodies. FIG. 9c: Histogram depicting the quantification of the vascularization of lung adenocarcinoma tumors.
FIG. 10: Anti-tumoral effect of the γ-secretase inhibitor JLK-6 on human lung adenocarcinoma (A-549) xenografts growth rates. A-549 cells (8.5×10^6) were injected subcutaneously into both flanks of 8-10 weeks-old nude mice. Mice were injected intraperitoneally everyday from Day 16 (when the tumors reached a volume of approximately 150 mm^3) with either the vehicle or 5 mg/Kg of body weight of the γ-secretase inhibitor JLK-6.
The human glioblastoma U-87 MG and human lung adenocarcinoma A-549 cell lines were obtained from American Tissue Culture Type Collection (Manassas, Va.) and were grown in DMEM containing 1×penicilline-streptomycine-fungizone and 10% fetal bovine serum at 37° C. in a humidified atmosphere of 5% CO2. Tumor cells (6×106) in 100 μl of PBS were inoculated subcutaneously into both flanks of 8-10-week-old female nude mice (Harland). Tumor volume (in mm^3) was determined using the formula (length×width^2)/2, where length was the longest axis and width the measurement at right angles to the length (Clarke et al. 2000). When the tumor volumes reached approximately 150 mm^3, animals were treated intraperitoneally everyday with 100 μl of 50% DMSO/H2O (vehicle group), 5 mg/Kg of body weight of Z-VLL-CHO (β-secretase inhibitor), 5 mg/Kg of JLK-6 (γ-secretase inhibitor) or with 10 mg/Kg of body weight of DAPT. Data were expressed as mean tumor volume±S.E for each treatment group.
At the completion of the study, animals were humanely euthanized and tumors were harvested and fixed in paraformaldehyde 4% overnight at 4° C. After paraffin embedding in an automated tissue processing Sakura Tissue-Tek (E150) (Torrence, Calif.), samples were cut into 5 μm sections, deparafinized, and rehydrated through a graded series of alcohol. Sections were treated with 0.02 mg/ml Proteinase K (Gentra Systems, MN) for 15 minutes at 37° C. to allow for proper antigen retrieval, washed several times in PBS and incubated for 15 minutes in a 0.3% solution of hydrogen peroxide. Sections were blocked and then immunostained with a 1:40 dilution of a PECAM-1 antibody (BD-Pharmingen, CA) overnight at 4° C. in a humidification chamber. Vector ABC Kits (Vector Laboratories Inc, CA) where used following the manufacturer's instruction for the immunostaining. Quantification of tumor vascularization was performed using the stereological dissector method. Briefly, forty consecutive sections were taken from a randomly chosen starting point in each tumor. Five sections for each tumor were selected for stereology by taking one section every eight sections. A dissector counting frame was used with inclusion and exclusion lines throughout the reference area. Vessel count was performed at ×400 magnification with the use of an Olympus microscope connected to a digital video camera. Microvessels were counted in the dissector frame by an experimenter unaware of the different treatment conditions. For each tumor an average vessel count per area of dissector frame was determined. A vascular index was calculated by expressing the vessel count as a percentage of the vessel count in the vehicle treatment condition.

APP [2] = assay: carboxyl-terminal APP fragments in human brain endothelial cell lysates (immunoblotting); type: cell-based; conditions: 5 μM, 24 hours
Protocol: (§1) Confluent human brain endothelial cells (grown on 75 cm2 flasks with EBM 4% FBS medium) were treated for 24 hours with 5 μM of Z-VVL-CHO, 5 μM of L-685,458, 5 μM of OM99-2, 5 AM of DAPT or went untreated (control). Experiments were done in quadriplicate for each treatment condition. 6E10 (Signet), a mAb that recognizes residues 1-17 of human Aβ (Van Nostrand et al., Nature, 341, 546-549, 1989) was used to immunoprecipitate soluble APP generated following cleavage by α-secretase from cell culture medium. Immunoprecipitated material was resolved on a 4-20% gradient SDS-PAGE, transferred to PVDF membranes and immunodetected with mAb 22C11 (Roche Diagnostics) that recognizes the amino acids 66-81 of the N-terminal portion of APP (Hibich, C., J. Biol. Chem., 268, 26571-26577, 1993). Human brain endothelial cells were lysed on ice using MPERTM reagent (Pierce) supplemented with 1 mM PMSF and 1 mM of sodium-orthovanadate. Samples were sonicated and centrifuged at 10,000 g for 30 min at 4° C. The protein content of the lysates was determined using the BCA Protein assay kit (Pierce). Total lysates ([…] of protein/sample) were separated on a 4-20% gradient SDS-PAGE and transferred to PVDF membranes and immunoprobed with mAb 22C11 in order to detect full length APP and also immunoprobed with an Anti-APP-CT20 (Calbiochem) antibody which recognizes the amino acid residues 751-770 of the carboxyl terminal region of APP (Pinnix et al. 2001; J. Biol. Chem., 276, 481).

β-secretase = target: T1, β-secretase (Cricetulus griseus, UniProt G3IAK4); conditions: Chinese hamster ovary cells, wild-type APP751, cited from earlier work
T1 construct: endogenous in cells; host or cells: Chinese hamster ovary cells stably transfected with wild-type APP751
T1 sequence (G3IAK4 22-501): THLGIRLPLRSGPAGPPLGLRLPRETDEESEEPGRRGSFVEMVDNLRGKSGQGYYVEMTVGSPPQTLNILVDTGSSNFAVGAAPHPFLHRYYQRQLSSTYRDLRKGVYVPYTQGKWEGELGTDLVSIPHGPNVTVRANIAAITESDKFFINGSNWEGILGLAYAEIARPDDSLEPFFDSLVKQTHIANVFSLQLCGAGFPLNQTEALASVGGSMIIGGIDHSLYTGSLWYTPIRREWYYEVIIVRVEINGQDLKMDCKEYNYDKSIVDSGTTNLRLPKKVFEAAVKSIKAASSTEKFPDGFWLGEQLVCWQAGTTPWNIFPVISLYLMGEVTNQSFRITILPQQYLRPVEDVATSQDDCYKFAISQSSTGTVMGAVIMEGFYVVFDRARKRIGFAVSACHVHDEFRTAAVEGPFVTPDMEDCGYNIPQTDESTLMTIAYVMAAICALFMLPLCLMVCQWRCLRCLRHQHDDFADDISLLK

[3] = tested on: Human middle cerebral artery endothelial cells; assay: capillary morphogenesis assay; type: cell-based
Protocol: Two hundred μl of Matrigel were placed into each well of a 24-well culture plate at 4° C. and allowed to polymerize by incubation at 37° C. Human middle cerebral artery endothelial cells (5×104) were seeded on the Matrigel in 1 ml of EBM containing 4% fetal calf serum. The cells were incubated at 37° C. for 20 hours in a humidified 5% CO2 atmosphere in the presence or absence of various doses of γ-secretase and β-secretase inhibitors as indicated in the figure legends. The experiments were performed in quadruplicate for each treatment condition. For each culture, 2 randomly chosen fields were photographed using a 4×objective. An experimenter unaware of the different treatments measured the total length of tube structures in each photograph using the Image Pro Plus software (Media Cybernetic, Inc., Md.). Capillary network lengths for the different treatment conditions were expressed as the percentage of capillary network lengths obtained in the control condition.

APP [4] = assay: α-sAPP secretion by human brain endothelial cells (immunoprecipitation, immunoblotting); type: cell-based; conditions: 5 μM, 24 hours
Protocol: as §1

Structure (SMILES) | vascularization (vascular index) of A-549 tumors versus vehicle [1] | growth (tumor volume) of A-549 xenografts versus vehicle [1] | accumulation of carboxyl-terminal APP fragments (APP CTF) (APP [2]) | IC50 (β-secretase; read-out: formation of Aβ42, IC50) [nM] | IC50 (β-secretase; read-out: formation of Aβtotal, IC50) [nM] | formation of capillary structures, overall [3] | secretion of α-sAPP (APP [4]) | secretion of α-sAPP (APP [4]; listed as Z-VVL-CHO)
C[C@H](NC(=O)Cc1cc(F)cc(F)c1)C(=O)N[C@H](C(=O)OC(C)(C)C)c1ccccc1 [DAPT, N-[N-(3,5-difluorophenacetyl-L-alanyl)]-S-phenylglycine t-butyl ester] | appeared to be decreased; also recorded: significantly reduce the vascularization | potently suppressed the growth; also recorded: significantly inhibit the growth | stimulates; also recorded: promoted the accumulation |  |  |  |  | 
CC(C)C[C@@H](C=O)NC(=O)[C@H](CC(C)C)NC(=O)[C@@H](NC(=O)OCc1ccccc1)C(C)C [Z-VLL-CHO, N-benzyloxycarbony-val-leu-leucinal] (Cbz-Val-Leu-Leu-aldehyde) | appeared to be decreased; also recorded: significantly reduce the vascularization | potently suppressed the growth; also recorded: significantly inhibit the growth |  | 2500 | 700 | profoundly anti-angiogenic | stimulated | significantly inceases
